{"source": "paper PMC9644403", "about": "“L-type Amino Acid Transporter 1 Utilizing Ferulic Acid Derivatives Show Increased Drug Delivery in the Mouse Pancreas Along with Decreased Lipid Peroxidation and Prostaglandin Production” (Molecular Pharmaceutics, 2022)", "key": {"[1]": {"test_system": "malondialdehyde (MDA) formation", "test": "Inhibition of lipid peroxidation: MDA formation in tissues of LPS-induced mice", "type": "in vivo, mouse", "details": "LPS 250 μg/kg i.p. 3 days, mean ± SD; for MDA formation in pancreas, preventative treatment: compound 25 μmol/kg i.p. for 3 days and 120 min before sacrifice; for MDA formation in pancreas, curative treatment: compound 25 μmol/kg i.p. only for the last 2 days", "experimental": "(§1) According to the results from previous in vitro([18]) efficacy and safety studies and in vivo pharmacokinetics, the efficacy of the FA and the more LAT1-specific derivative, D1 against oxidative stress and lipid peroxidation was evaluated by determining malondialdehyde (MDA) formation in mouse tissues. To induce oxidative stress, mice were administered 250 μg/kg of lipopolysaccharide (LPS) i.p. once per day for 3 consecutive days. On the 4th day, mice were anesthetized using a mixture of ketamine (140 mg/kg) and xylazine (8 mg/kg) and sacrificed by decapitation. Animals were divided into one of four treatment groups (n = 4 per group); (1) LPS only, (2) LPS with the FA or D1 (25 μmol/kg; i.p.) for 3 days and 120 min before the sacrifice on the 4th day (preventative efficacy), (3) LPS with the FA or D1 (25 μmol/kg; i.p.) only for the last 2 days (curative efficacy), or (4) control mice treated with 0.9% NaCl solution i.p. once per day for 3 days. After decapitation, the kidney, liver, and pancreas were rapidly collected, snap-frozen on dry ice, and stored at −80 °C until analyzed.\nPieces of snap-frozen tissues were homogenized 1:10 (w/v) in 50 mM TBS (pH 7.4) containing 0.01% butylated hydroxytoluene by sonicating samples in pulses for 5 s with a SoniPrep 150 Plus disintegrator (MSE Ltd., London, UK). The homogenates were then centrifuged at 10 000 × g for 20 min at 4 °C, and the supernatants were collected for the assays.\nMDA was quantified by the derivatization reaction with thiobarbituric acid (TBA) (Sigma, St. Louis, MO, USA), with a previously described protocol.[30] The analysis was carried out with an Agilent 1290 Infinity II LC System (Agilent Technologies, Santa Clara, CA, USA) combined with an Agilent 1290 Infinity II Diode Array Detector. The results were calculated as μmol of formed MDA-TBA2 per mg of tissue."}, "[2]": {"details": "mouse plasma, equilibrium dialysis, 4 h incubation, n = 2; cited from earlier work"}, "HUVECs": {"test_system": "HUVECs", "test": "HUVEC morphology, phase-contrast microscopy", "type": "cell-based, human", "details": "24 h incubation", "experimental": "As a third in vitro toxicity study in the human blood circulation system, the effects of FA, D1, and D2 on the viability of human umbilical vein endothelial cells (HUVECs; RRID CVCL_2959; Lonza, Italy; Cat. no. CC-2517) were determined using the WST-1 assay (Takara, Takara Bio Europe, Europe, Saint-Germain-en-Laye, France), according to the previously published protocol.[32] Briefly, the cells were cultured according to the manufacturer’s guidelines with the following ingredients: EGM-2-medium + bullet kit (Lonza, Clonetics, Italy), accutase (Sigma-Aldrich, Germany), and HEPES-buffered saline solution (Lonza, Basel, Switzerland). For the assay, the cells were seeded at the density of 7 500 HUVECs per well on 96-well plates and cultured for 24 h to obtain 70% confluency. Subsequently, the cells were treated with studied compounds in multiplicate (n = 6–8) at the concentration of 0.1–100 μM in the growth medium for 24 h (37 °C, 5% CO2). Cells with untreated growth medium represented 100% viability, whereas cells treated with medium containing 0.5% (v/v) methanol served as a negative control for drug solvent. After treating cells for 24 h, medium was removed, the cells were washed with the culture medium (100 μl/well), and 100 μL of WST-1 reagent dissolved in culture medium was added into each well. The plates were incubated at 37 °C with 5% CO2 for 2 h, after which absorbance values were measured at the 450 nm wavelength using a microplate reader (iMARK, Bio-Rad). Additionally, the effects of treatments on HUVEC morphology were examined microscopically using a phase-contrast Opta-Tech inverted microscope equipped with OptaView 7 software (Opta-Tech, Warsaw, Poland) for image analysis."}, "[3]": {"test_system": "prostaglandin E2 (PGE2) production", "test": "Inhibition of prostaglandin E2 production in tissues of LPS-induced mice", "type": "in vivo, mouse", "details": "LPS 250 μg/kg i.p., mean ± SD; for PGE2 in liver, preventative treatment / PGE2 in pancreas, preventative treatment: compound 25 μmol/kg i.p. 3 days and 120 min before sacrifice; for PGE2 in liver, curative treatment / PGE2 in pancreas, curative treatment: compound 25 μmol/kg i.p. last 2 days", "experimental": "as §1\nThe ability of FA and D1 to inhibit prostaglandin E2 (PGE2) production in the mouse kidney, liver, and pancreas was evaluated after the exposure of mice to LPS. The tissue homogenate supernatants (n = 4), prepared as described above in MDA sample preparation (Chapter 2.7), were further diluted 1:5 with 80% MeOH (v/v) solution containing the deuterated internal standard, PGE2-d4 (Cayman Chemical Company, Ann Arbor, MI, USA). To improve the extraction of prostaglandins and precipitation of proteins, the diluted samples were incubated overnight in a freezer (−80 °C). Subsequently, samples were centrifuged at 16 000 × g for 20 min at 4 °C and the supernatants were collected for the LC–MS/MS analysis.\nThe LC–MS/MS analysis was carried out with a previously described method[30] using an Agilent 1290 Infinity LC System (Agilent Technologies, Waldbronn, Germany) and an Agilent 6495 triple quadrupole mass spectrometer with a heated electrospray ionization source (Agilent Technologies, Palo Alto, CA, USA). Data were collected using Agilent MassHunter Workstation software (version B.06.00) and processed with the Quantitative Analysis (B.07.00) software. The results were calculated as nmol of PGE2 per mg of tissue."}, "human erythrocytes": {"test_system": "human erythrocytes", "test": "Erythrocyte morphology, phase-contrast microscopy", "type": "cell-based", "details": "tested 25–100 μM", "experimental": "To further evaluate the safety of derivatives in human blood, the effects of FA, D1, and D2 on hemolysis were studied using a previously described protocol.[31] Shortly, freshly collected erythrocytes were washed three times with 1 mL of 0.9% saline (Sigma-Aldrich, Germany). Subsequently, 2% RBC suspension was prepared by diluting 1 mL of erythrocytes in 50 mL of 0.9% saline. FA, D1, and D2 (1–100 μM) were incubated with the RBC suspension at 37 °C for 1 h. Additionally, negative controls containing 0.9% NaCl and positive controls with Triton X-100 (Polish Chemical Reagents, Poland) were studied. After incubation, the samples were centrifuged at 3 000 rpm for 10 min, and the absorbance values were measured from the collected supernatants at the wavelength of 550 nm. Samples with Triton X (positive control) represented 100% hemolysis. Results of the studies are presented as a percentage of released hemoglobin. The counted CV was 8.1% (n = 5). Additionally, the influence of FA and its derivatives (25–100 μM) on RBC morphology was studied using a phase contrast Opta-Tech inverted microscope. The morphology was analyzed using a dedicated OptaView 7 software (Opta-Tech, Warsaw, Poland)."}}, "note": "Marks after values point to notes of the source that are not given here.", "data": [{"smiles": "COc1cc(C=CC(=O)O)ccc1O", "note": "[ferulic acid, 4-hydroxy-3-methoxycinnamic acid]", "values": [{"measurement": "MDA formation in pancreas, preventative treatment", "setting": "[1]", "value": "0.94 ± 0.41", "unit": "µmol/mg"}, {"measurement": "MDA formation in pancreas, curative treatment", "setting": "[1]", "value": "1.04 ± 0.29", "unit": "µmol/mg"}, {"measurement": "fu, plasma (%)", "setting": "[2]", "value": "9.94–11.51 ^b %"}, {"measurement": "HUVEC morphology at 100 μM", "setting": "HUVECs", "value": "more elongated cells were seen"}, {"measurement": "HUVEC morphology at 25–50 μM", "setting": "HUVECs", "value": "did not change cell morphology"}, {"measurement": "PGE2 in liver, preventative treatment", "setting": "[3]", "value": "25.41 ± 6.35", "unit": "nmol/mg"}, {"measurement": "PGE2 in pancreas, preventative treatment", "setting": "[3]", "value": "57.56 ± 51.63", "unit": "nmol/mg"}, {"measurement": "PGE2 in liver, curative treatment", "setting": "[3]", "value": "37.07 ± 10.02", "unit": "nmol/mg"}, {"measurement": "PGE2 in pancreas, curative treatment", "setting": "[3]", "value": "54.68 ± 22.02", "unit": "nmol/mg"}]}, {"smiles": "COc1cc(C=CC(=O)NCc2cccc(CC(N)C(=O)O)c2)ccc1O", "note": "(stereo not drawn) [derivative 1]", "values": [{"measurement": "MDA formation in pancreas, preventative treatment", "setting": "[1]", "value": "0.46 ± 0.47", "unit": "µmol/mg"}, {"measurement": "MDA formation in pancreas, curative treatment", "setting": "[1]", "value": "0.44 ± 0.39", "unit": "µmol/mg"}, {"measurement": "concentration at which anisocytosis with formation of macrocytes was observed", "setting": "human erythrocytes", "value": "50 to 100", "unit": "µM"}, {"measurement": "concentration at which few stomatocytes were detected", "setting": "human erythrocytes", "value": 100, "unit": "µM"}, {"measurement": "fu, plasma (%)", "setting": "[2]", "value": "19.66–30.62 ^b %"}, {"measurement": "HUVEC morphology at 100 μM", "setting": "HUVECs", "value": "slightly more rounded, bright dead cells were observed"}, {"measurement": "HUVEC morphology at 25–50 μM", "setting": "HUVECs", "value": "did not cause significant changes in HUVEC morphology"}, {"measurement": "PGE2 in liver, preventative treatment", "setting": "[3]", "value": "15.95 ± 9.61", "unit": "nmol/mg"}, {"measurement": "PGE2 in pancreas, preventative treatment", "setting": "[3]", "value": "24.51 ± 15.99", "unit": "nmol/mg"}, {"measurement": "PGE2 in liver, curative treatment", "setting": "[3]", "value": "48.55 ± 14.50", "unit": "nmol/mg"}, {"measurement": "PGE2 in pancreas, curative treatment", "setting": "[3]", "value": "23.51 ± 8.81", "unit": "nmol/mg"}]}, {"smiles": "COc1cc(/C=C/C(=O)Nc2cccc(C[C@H](N)C(=O)O)c2)ccc1O", "note": "[derivative 2]", "values": [{"measurement": "concentration at which formation of echinocytes was observed", "setting": "human erythrocytes", "value": "50 to 100", "unit": "µM"}, {"measurement": "fu, plasma (%)", "setting": "[2]", "value": "8.37–9.01 ^b %"}, {"measurement": "HUVEC morphology at 50 μM", "setting": "HUVECs", "value": "first brighter cells appearing"}, {"measurement": "HUVEC morphology at 100 μM", "setting": "HUVECs", "value": "reduced the number of viable cells and cell density as well as caused an irregular shape with cytoplasm leakage"}]}]}
